US20170190705A1, “Compositions and Methods for Inhibiting BMP” (THE BRIGHAM AND WOMAN'S HOSPITAL, INC., priority 2014, published 2017)
Read-outs that look alike come from different tables or passages of the source.

Key:
Format in all cases: biochemical
ROCK1 = ROCK1 (Homo sapiens, UniProt Q13464); assay: Kinome profiling ROCK1; conditions: read-out: Inhibitory activity ROCK1; for inhibition at 0.1 µM: 100 nM
Experimental: (§1) . The kinome-wide selectivity was determined following the methods previously reported by Mohedas et al., ACS Chem Biol 2013, 8, 1291-1302 and Sanvitale et al., PLoS One 2013, 8, e62721.

TYRO3 = target: T1, TYRO3 (Homo sapiens, UniProt Q06418); assay: Kinome profiling TYRO3; conditions: read-out: Inhibitory activity TYRO3; for inhibition at 0.1 µM: 100 nM
T1 sequence (Q06418 41-890): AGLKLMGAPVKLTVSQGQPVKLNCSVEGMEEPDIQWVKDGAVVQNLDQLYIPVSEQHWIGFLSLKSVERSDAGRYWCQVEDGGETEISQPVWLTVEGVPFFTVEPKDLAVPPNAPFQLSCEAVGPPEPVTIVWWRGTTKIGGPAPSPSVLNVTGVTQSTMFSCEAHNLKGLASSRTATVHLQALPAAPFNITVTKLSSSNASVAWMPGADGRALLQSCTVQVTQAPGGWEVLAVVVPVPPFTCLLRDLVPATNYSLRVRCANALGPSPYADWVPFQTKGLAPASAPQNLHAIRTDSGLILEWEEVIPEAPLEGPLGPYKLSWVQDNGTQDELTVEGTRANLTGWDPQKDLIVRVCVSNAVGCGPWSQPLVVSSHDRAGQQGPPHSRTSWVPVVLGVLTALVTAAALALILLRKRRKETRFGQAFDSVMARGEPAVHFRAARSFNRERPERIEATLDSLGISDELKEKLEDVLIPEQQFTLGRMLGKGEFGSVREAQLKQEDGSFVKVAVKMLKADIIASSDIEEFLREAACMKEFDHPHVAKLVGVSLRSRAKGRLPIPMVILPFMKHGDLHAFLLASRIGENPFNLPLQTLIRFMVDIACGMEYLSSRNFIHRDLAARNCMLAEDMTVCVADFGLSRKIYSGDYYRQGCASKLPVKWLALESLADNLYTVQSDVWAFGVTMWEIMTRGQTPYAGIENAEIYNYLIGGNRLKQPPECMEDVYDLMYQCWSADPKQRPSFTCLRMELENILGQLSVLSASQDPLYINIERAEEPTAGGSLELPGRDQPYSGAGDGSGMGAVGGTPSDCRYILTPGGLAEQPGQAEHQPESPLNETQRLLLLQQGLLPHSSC
Experimental: as §1

JAK1 = JAK1 (Homo sapiens, UniProt P23458); assay: Kinome profiling JAK1; conditions: read-out: Inhibitory activity JAK1; for inhibition at 0.1 µM: 100 nM
Chain of JAK1 (P23458 whole entry): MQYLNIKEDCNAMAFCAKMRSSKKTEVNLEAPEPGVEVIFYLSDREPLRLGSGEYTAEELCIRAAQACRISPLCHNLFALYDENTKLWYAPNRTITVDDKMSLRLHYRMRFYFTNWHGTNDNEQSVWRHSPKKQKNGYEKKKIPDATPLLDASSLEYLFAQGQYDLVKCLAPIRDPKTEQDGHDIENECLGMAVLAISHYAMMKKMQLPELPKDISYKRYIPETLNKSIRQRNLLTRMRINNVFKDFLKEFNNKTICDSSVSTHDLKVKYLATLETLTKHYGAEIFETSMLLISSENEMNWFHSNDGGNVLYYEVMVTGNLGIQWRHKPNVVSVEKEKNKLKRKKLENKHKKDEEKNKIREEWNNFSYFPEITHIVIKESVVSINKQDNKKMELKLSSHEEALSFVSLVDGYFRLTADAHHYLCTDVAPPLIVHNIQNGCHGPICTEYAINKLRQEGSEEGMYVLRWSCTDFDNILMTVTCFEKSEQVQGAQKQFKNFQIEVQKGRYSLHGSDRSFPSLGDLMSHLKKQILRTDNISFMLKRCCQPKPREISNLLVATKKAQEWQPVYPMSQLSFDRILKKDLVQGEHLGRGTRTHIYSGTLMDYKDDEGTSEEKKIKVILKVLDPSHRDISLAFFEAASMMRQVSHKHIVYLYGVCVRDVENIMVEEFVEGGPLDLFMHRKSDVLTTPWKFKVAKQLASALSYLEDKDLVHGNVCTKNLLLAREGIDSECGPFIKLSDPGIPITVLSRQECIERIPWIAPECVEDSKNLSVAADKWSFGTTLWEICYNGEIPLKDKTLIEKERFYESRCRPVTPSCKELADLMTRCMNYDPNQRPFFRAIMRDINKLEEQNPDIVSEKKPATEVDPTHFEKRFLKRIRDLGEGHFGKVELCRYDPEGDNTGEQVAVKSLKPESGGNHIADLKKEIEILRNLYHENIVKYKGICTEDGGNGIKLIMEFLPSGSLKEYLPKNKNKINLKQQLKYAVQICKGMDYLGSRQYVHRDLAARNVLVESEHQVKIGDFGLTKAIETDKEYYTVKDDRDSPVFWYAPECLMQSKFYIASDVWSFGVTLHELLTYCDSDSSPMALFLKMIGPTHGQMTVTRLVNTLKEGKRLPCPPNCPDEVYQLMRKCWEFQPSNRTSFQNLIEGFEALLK
Experimental: as §1

PASK = PASK (Homo sapiens, UniProt Q96RG2); assay: Kinome profiling PASK; conditions: read-out: Inhibitory activity PASK; for inhibition at 0.1 µM: 100 nM
Chain of PASK (Q96RG2 whole entry): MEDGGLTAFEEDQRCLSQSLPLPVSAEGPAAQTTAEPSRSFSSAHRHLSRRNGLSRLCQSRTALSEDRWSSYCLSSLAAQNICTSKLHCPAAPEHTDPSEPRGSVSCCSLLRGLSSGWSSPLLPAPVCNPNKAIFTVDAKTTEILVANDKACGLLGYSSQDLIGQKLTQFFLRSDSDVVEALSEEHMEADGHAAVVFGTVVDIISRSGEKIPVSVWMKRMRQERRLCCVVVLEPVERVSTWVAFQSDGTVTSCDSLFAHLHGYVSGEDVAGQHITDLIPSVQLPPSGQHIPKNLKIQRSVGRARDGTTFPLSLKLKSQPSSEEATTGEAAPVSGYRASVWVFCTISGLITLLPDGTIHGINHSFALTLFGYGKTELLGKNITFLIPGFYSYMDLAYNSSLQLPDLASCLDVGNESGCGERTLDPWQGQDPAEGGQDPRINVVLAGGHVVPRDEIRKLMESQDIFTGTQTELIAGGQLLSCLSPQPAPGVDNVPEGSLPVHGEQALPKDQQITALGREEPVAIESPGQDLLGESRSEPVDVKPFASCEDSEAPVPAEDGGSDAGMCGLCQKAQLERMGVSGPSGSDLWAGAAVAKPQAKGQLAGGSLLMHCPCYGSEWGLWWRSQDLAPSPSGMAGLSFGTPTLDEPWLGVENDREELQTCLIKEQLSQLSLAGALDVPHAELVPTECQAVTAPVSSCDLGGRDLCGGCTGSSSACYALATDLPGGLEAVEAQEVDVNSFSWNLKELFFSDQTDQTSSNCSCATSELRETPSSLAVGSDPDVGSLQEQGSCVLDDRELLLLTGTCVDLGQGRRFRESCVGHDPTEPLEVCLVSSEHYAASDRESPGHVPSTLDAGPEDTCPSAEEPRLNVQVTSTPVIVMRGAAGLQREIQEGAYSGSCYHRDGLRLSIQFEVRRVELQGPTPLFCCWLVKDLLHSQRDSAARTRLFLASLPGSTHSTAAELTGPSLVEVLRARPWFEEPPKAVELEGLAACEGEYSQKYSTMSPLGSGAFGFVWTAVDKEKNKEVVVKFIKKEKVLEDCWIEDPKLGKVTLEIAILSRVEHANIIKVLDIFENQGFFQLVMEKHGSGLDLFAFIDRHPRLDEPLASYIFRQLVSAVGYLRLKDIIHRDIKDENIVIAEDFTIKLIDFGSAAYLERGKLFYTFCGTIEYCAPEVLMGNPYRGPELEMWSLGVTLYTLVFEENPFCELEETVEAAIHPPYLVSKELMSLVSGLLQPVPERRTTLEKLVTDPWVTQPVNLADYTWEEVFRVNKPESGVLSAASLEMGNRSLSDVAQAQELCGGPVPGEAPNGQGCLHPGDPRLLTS
Experimental: as §1

ARG (ABL2) = ARG (ABL2) (Homo sapiens, UniProt P42684); assay: Kinome profiling ARG (ABL2); conditions: for inhibition at 0.1 µM: 100 nM
Chain of ARG (ABL2) (P42684 whole entry): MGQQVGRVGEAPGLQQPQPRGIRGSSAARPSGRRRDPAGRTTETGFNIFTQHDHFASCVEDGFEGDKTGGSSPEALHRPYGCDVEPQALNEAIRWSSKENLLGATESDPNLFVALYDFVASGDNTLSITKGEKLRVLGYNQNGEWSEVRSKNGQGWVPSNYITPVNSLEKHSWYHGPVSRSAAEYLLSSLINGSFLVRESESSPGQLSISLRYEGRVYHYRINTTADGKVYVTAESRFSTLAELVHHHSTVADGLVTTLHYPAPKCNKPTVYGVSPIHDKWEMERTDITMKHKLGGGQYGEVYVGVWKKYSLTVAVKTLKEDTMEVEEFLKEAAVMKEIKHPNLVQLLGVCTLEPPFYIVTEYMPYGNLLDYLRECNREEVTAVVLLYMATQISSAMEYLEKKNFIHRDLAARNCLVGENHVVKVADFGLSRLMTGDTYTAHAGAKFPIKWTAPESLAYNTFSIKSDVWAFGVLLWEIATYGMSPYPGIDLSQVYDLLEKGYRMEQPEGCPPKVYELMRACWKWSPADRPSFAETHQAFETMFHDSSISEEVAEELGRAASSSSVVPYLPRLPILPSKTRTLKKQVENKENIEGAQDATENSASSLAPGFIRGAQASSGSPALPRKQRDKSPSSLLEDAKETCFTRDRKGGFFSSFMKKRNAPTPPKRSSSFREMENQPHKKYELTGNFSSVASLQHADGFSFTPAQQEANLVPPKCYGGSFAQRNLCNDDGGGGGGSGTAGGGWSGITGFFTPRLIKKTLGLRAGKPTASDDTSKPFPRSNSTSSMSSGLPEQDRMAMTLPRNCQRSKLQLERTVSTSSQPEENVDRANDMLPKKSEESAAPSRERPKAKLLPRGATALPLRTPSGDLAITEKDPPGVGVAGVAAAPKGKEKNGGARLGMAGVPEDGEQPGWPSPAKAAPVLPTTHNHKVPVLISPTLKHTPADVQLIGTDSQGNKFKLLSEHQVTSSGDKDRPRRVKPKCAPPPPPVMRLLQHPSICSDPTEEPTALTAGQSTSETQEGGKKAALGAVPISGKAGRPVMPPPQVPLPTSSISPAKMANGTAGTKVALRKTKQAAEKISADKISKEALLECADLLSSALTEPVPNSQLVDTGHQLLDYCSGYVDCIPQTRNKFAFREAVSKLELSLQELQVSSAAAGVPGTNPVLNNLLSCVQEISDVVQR
Experimental: as §1

MAP4K2 = target: T2, MAP4K2 (Homo sapiens, UniProt Q12851); assay: Kinome profiling MAP4K2; conditions: for inhibition at 0.1 µM: 100 nM
T2 sequence (Q12851 1-820): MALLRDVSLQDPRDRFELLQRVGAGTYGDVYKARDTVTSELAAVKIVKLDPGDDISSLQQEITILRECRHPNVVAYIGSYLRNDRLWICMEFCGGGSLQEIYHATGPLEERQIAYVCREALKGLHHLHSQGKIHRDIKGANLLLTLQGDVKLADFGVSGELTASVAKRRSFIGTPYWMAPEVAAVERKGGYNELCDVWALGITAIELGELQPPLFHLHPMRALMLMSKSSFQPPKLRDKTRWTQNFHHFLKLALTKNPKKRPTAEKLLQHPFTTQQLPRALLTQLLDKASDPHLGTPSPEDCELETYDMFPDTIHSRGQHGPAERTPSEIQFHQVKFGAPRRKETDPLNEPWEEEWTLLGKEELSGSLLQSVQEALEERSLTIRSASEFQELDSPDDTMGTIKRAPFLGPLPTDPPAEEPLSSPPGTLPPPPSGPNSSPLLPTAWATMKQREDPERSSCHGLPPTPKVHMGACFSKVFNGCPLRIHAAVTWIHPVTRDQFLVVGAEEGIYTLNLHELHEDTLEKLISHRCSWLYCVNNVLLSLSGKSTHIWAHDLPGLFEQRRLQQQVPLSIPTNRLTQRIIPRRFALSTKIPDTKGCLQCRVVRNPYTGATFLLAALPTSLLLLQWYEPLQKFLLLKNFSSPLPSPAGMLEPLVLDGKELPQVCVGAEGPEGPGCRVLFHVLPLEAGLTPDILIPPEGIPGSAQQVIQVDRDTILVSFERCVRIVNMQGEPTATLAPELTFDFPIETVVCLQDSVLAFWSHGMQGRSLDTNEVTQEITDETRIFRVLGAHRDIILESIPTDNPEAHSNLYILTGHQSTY
Experimental: as §1

[1] = read-out: Inhibitory activity ARG (ABL2)
[2] = read-out: Inhibitory activity MAP4K2
[3] = Table 4, read-out: Inhibitory Activity ARG
[4] = Table 4, read-out: Inhibitory Activity MAP4K2

Chain of ROCK1 (Q13464 whole entry): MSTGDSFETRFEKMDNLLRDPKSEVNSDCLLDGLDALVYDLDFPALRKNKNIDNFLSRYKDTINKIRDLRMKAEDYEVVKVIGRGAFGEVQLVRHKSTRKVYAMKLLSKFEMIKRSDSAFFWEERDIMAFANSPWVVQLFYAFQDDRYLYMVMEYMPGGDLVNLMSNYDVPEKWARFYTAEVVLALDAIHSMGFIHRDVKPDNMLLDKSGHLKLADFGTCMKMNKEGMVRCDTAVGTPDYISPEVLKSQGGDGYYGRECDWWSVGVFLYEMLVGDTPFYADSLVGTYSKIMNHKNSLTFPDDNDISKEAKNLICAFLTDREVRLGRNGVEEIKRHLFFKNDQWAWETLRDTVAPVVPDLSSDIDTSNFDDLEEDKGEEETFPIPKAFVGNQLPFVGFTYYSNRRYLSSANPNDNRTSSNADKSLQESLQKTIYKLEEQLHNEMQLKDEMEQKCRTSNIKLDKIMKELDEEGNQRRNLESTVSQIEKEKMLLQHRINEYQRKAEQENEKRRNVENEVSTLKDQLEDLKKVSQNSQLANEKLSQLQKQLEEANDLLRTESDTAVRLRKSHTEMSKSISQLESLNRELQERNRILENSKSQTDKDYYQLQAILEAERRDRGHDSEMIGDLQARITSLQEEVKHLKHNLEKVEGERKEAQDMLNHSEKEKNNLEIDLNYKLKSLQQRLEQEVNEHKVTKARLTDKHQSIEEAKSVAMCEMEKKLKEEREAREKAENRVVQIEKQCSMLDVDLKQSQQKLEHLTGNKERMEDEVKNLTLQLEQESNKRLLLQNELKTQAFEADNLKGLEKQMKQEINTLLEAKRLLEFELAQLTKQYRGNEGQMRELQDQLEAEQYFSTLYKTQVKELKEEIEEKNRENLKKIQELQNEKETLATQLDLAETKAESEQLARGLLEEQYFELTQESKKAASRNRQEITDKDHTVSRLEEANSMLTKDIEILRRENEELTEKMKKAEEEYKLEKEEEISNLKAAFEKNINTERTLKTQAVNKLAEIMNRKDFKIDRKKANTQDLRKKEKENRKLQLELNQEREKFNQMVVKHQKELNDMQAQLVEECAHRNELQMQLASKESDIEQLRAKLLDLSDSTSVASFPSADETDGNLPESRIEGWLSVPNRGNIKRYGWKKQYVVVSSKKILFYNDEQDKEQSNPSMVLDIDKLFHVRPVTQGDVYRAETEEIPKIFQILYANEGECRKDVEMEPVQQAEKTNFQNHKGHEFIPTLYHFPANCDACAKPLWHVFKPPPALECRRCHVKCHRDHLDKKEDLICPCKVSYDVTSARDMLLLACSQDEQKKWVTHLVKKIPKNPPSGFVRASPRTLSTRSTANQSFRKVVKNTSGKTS

COc1cc(-c2cc(-c3ccc(N4CCNCC4)cc3)cnc2N)cc(OC)c1OC [Compound 15, 5-(4-(piperazin-1-yl)phenyl)-3-(3,4,5-trimethoxyphenyl)pyridin-2-amine]
inhibition at 0.1 µM (ROCK1): 0%
inhibition at 1 µM (ROCK1): 0%
inhibition at 0.1 µM (TYRO3): 23%
inhibition at 1 µM (TYRO3): 75%
inhibition at 0.1 µM (JAK1): 1%
inhibition at 1 µM (JAK1): 0%
inhibition at 0.1 µM (PASK): 2%
inhibition at 1 µM (PASK): 1%
inhibition at 0.1 µM (ARG (ABL2); [1]): 60%
inhibition at 1 µM (ARG (ABL2); [1]): 81%
inhibition at 0.1 µM (MAP4K2; [2]): 36%
inhibition at 1 µM (MAP4K2; [2]): 77%

COc1cc(-c2cc(-c3ccc(N4CCNCC4)cc3)cnc2C)cc(OC)c1OC [Compound 10, 1-(4-(6-methyl-5-(3,4,5-trimethoxyphenyl)pyridin-3-yl)phenyl)piperazine]
inhibition at 0.1 µM (ROCK1): 1%
inhibition at 1 µM (ROCK1): 0%
inhibition at 0.1 µM (TYRO3): 4%
inhibition at 1 µM (TYRO3): 21%
inhibition at 0.1 µM (JAK1): 2%
inhibition at 1 µM (JAK1): 2%
inhibition at 0.1 µM (PASK): 3%
inhibition at 1 µM (PASK): 4%
inhibition at 0.1 µM (ARG (ABL2); [3]): 17%
inhibition at 0.1 µM (ARG (ABL2); [1]): 17%
inhibition at 1 µM (ARG (ABL2); [3]): 62%
inhibition at 1 µM (ARG (ABL2); [1]): 62%
inhibition at 0.1 µM (MAP4K2; [4]): 16%
inhibition at 0.1 µM (MAP4K2; [2]): 16%
inhibition at 1 µM (MAP4K2; [4]): 61%
inhibition at 1 µM (MAP4K2; [2]): 61%
